No end group written: not given here.

For one assay, the system named is S. aureus (5). As to conditions: Table 6B. The procedure: (§1) All the strains (see below) used in minimal inhibitory concentration (MIC) assays (Ovchinnikov et al., 2017, Front Microbiol., 8, p774, doi:10.3389/fmicb.2017.00774) were grown in BHI medium (Oxoid) at 30° C. without shaking. The tested strains were obtained from the LMG collection. […] NisinZ and micrococcin P1 were purified from source. Synthesized peptides were solubilized to concentrations of 10.0-0.1 mg/ml in 0.1% (vol/vol) trifluoroacetic acid and stored at −20° C. until use. Garvicin KS is made up of 3 peptides:
(§2) Bacteriocin activity was determined using a microtitre plate assay. The plates were incubated at 30° C. for 8 h and the growth was measured spectrophotometrically at 600 nm (A600) with 15 min intervals using SPECTROstarNano (BMG LABTECH, Germany). The MIC was defined as the bacteriocin concentration that inhibited the growth of the indicator strain by at least 50% in 200 μl culture (i.e., 50% of the turbidity of the control culture without bacteriocin).

The subject of another assay is SP 4012. The assay is described as follows: organism not typed. Particulars: SP 4012 (S. pseudointermedius). The procedure:
as §1, §2

The test system of a further assay is SP 4014. The assay is described as follows: organism not typed. Particulars: SP 4014 (S. pseudointermedius). As to the method: as §1, §2
For the next assay, the system named is SP 4013. The assay is described as follows: organism not typed. As to conditions: SP 4013 (S. pseudointermedius). The procedure:
as §1, §2

Another assay deals with KAVA. Briefly: MIC microtitre plate assay, pathogenic isolates. It is filed as cell-based. As to conditions: KAVA. As to the method: The tested strains were obtained from the LMG collection. […] NisinZ and micrococcin P1 were purified from source. […] Garvicin KS is made up of 3 peptides:
Bacteriocin activity was determined using a microtitre plate assay. The plates were incubated at 30° C. for 8 h and the growth was measured spectrophotometrically at 600 nm (A600) with 15 min intervals using SPECTROstarNano (BMG LABTECH, Germany).

The subject of another assay is S. pseudointermedius (3). Particulars: S. pseudointermedius (3), Table 6B. As to the method: as §1, §2

In general, MIC refers to the lowest concentration found to suppress growth. A higher MIC goes with weaker potency. As for “MKFKFNPTGTIVKKLTQYEIAWFKNKHGYYPWEIPRC [EntK1]”, the MIC against S. aureus (5) is more than 25 µg/mL.

Turning to “MLAKIKAMIKKFPNPYTLAAKLTTYEINWYKQQYGRYPWERPVA [EntEJ97]”, the MIC in the assay with SP 4012 is 12.5 µg/mL; with SP 4014 it was 12.5 µg/mL; in the assay on SP 4013, 12.5 µg/mL; with KAVA, more than 50 µg/mL; against S. pseudointermedius (3) it was 12.5 µg/mL.

The record behind these values is patent US11648289B2, “Antibacterial method” (priority 2016, dated 2023).
